Our source for the EC50 values is US12629374B2, “Antimalarial agents” (Merck Sharp & Dohme LLC, priority 2020, dated 2026).

Structures are written as SMILES. Counter-ions that a name gives are not always drawn.

A word on the EC50: it is the concentration that produces a half-maximal response.

The subject of the first assay is ring stage parasites. Kind of assay: Parasite growth potency assay, 72 hours, LDH readout. It counts as cell-based. The conditions noted are these: 72 h, parasite growth measured by LDH assay after 72 hours at 37° C.; 0.7% rings, 2% haematocrit; read-out: EC50. The method, then: The parasite stock was maintained at 4% haematocrit in RPMI-Hepes media buffered with sodium bicarbonate and supplemented with 5% heat inactivated human serum and 0.5% albumax.
On the day of assay set up, a blood smear of the parasite culture was Giemsa stained and counted. The parasitemia was adjusted to 0.7% rings and the haematocrit was diluted to 2% in RPMI-Hepes media buffered with sodium bicarbonate and supplemented with 5% heat inactivated human serum and 0.5% albumax. 30 ul of diluted parasites are then added into 10 ul of media+compound in pre-prepared Greiner TC assay plates. Parasite assay plates were placed in gassed humidified boxes in single layer and allowed to incubate at 37° C. for 72 hours. After 72 hours growth, assay plates are sealed with parafilm and frozen flat, in single file at −80° C. overnight. On the following day, assay plates are allowed to thaw at room temperature for 4 hours to which an LDH assay is performed to measure parasite growth.
Consider `CCC1(CC)CC(=O)N([C@H](COCCOC)c2cccc(C(=O)N[C@H]3CC(C)(C)Oc4ccccc43)c2)C(=N)N1` [Example 112A, [1-[1-[3-[[(4S)-2,2-dimethylchroman-4-6-oxo-hexahydropyrimidin-2-ylidene]ammonium; 2,2,2-trifluoroacetate], for which the EC50 is 0.3 nM.

As to `CCC1(CC)CC(=O)N([C@@H](COCCOC)c2cccc(C(=O)N[C@H]3CC(C)(C)Oc4ccccc43)c2)C(=N)N1` (single isomer, unassigned) [Example 112B, trifluoroacetate], the concentration giving a half-maximal response (EC50) was found to be 59.6 nM.

For the molecule `CCC[C@H](c1cccc(C(=O)N[C@@H]2c3ccccc3C[C@H]2O)c1)N1C(=N)N[C@](CC)(c2ccccc2)CC1=O` [Example 71, [(4S)-4-ethyl-1-[(1R)-1-[3-[[(1R,2R)-2-hydroxyindan-1-yl]carbamoyl]phenyl]butyl]-6-oxo-4-phenyl-hexahydropyrimidin-2-ylidene]ammonium; 2,2,2-trifluoroacetate], the EC50 was 9.3 nM. Turning to `CCC[C@H](c1cccc(C(=O)N[C@H]2c3ccccc3OC(C)(C)[C@@H]2O)c1)N1C(=N)NC(CC)(CC)CC1=O` [Example 119B, [4,4-diethyl-1-[(1R)-1-[3-[(3-hydroxy-2,2-dimethyl-chroman-4-yl)carbamoyl]phenyl]butyl]-6-oxo-hexahydropyrimidin-2-ylidene]ammonium; 2,2,2-trifluoroacetate], the EC50 turned out to be 34 nM. With `N=C1N[C@@](CC2CC2)(c2ccccc2)CC(=O)N1[C@H](c1cccnc1)c1cccc(C(=O)N[C@H]2CCOc3ccccc32)c1` [Example 8, [(4R)-1-[[3-[[(4S)-chroman-4-yl]carbamoyl]phenyl]-pyridin-1-ium-3-yl-methyl]-4-(cyclopropylmethyl)-6-oxo-4-phenyl-hexahydropyrimidin-2-ylidene]ammonium; 2,2,2-trifluoroacetate], the EC50 was found to be 4.2 nM. Turning to `CCC[C@H](c1cccc(C(=O)N[C@@H]2c3ccccc3C[C@H]2O)c1)N1C(=N)N[C@](CC2CC2)(c2ccccc2)CC1=O` [Example 69, [(4S)-4-(cyclopropylmethyl)-1-[(1R)-1-[3-[[(1R,2R)-2-hydroxyindan-1-yl]carbamoyl]phenyl]butyl]-6-oxo-4-phenyl-hexahydropyrimidin-2-ylidene]ammonium; 2,2,2-trifluoroacetate], the EC50 worked out at 29.3 nM. Take `CCC1(CC)CC(=O)N([C@H](c2cccc(C(=O)N[C@H]3CCOc4ccccc43)c2)c2cccc(S(C)(=O)=O)c2)C(=N)N1` [Example 123B, [1-[[3-[[(4S)-chroman-4-yl]carbamoyl]phenyl]-(3-methylsulfonylphenyl)methyl]-4,4-diethyl-6-oxo-hexahydropyrimidin-2-ylidene]ammonium; 2,2,2-trifluoroacetate]: the EC50 came out at 9.3 nM.

`CCC1(CC)CC(=O)N([C@H](C)c2cccc(C(=O)N[C@@H]3c4ccccc4OC[C@@]3(C)O)c2)C(=N)N1` [Example 205A, [4,4-diethyl-1-[(1R)-1-[3-[[(3S,4R)-3-hydroxy-3-methyl-chroman-4-yl]carbamoyl]phenyl]ethyl]-6-oxo-hexahydropyrimidin-2-ylidene]ammonium; 2,2,2-trifluoroacetate]: the EC50 stood at 1.1 nM. As for `CCC1(CC)CC(=O)N(Cc2cc(F)cc(C(=O)N[C@@H]3c4cc(F)ccc4OC(C)(C)[C@H]3O)c2)C(=N)N1` (stereo in doubt) [Example 148, [4,4-diethyl-1-[[3-fluoro-5-[(6-fluoro-3-hydroxy-2,2-dimethyl-chroman-4-yl)carbamoyl]phenyl]methyl]-6-oxo-hexahydropyrimidin-2-ylidene]ammonium; 2,2,2-trifluoroacetate], the EC50 came out at 1 nM. On the same count and under the same terms, as for `CCC1(CC)CC(=O)N(Cc2cccc(C(=O)N[C@@H]3c4ccccc4OC(C)(C)C3(C)O)c2)C(=N)N1` (stereo in doubt) [Example 184, 3-[(4,4-diethyl-2-imino-6-oxo-hexahydropyrimidin-1-yl)methyl]-N-(3-hydroxy-2,2,3-trimethyl-chroman-4-yl)benzamide], the figure is 1.5 nM. As for `CCC1(CC)CC(=O)N([C@H](CCOC)c2cccc(C(=O)NC3CC(C)(C)Oc4ccccc43)c2)C(=N)N1` (stereo in doubt) [Example 72B, [1-[1-[3-[(2,2-dimethylchroman-4-yl)carbamoyl]phenyl]-3-methoxy-propyl]-4,4-diethyl-6-oxo-hexahydropyrimidin-2-ylidene]ammonium; 2,2,2-trifluoroacetate], the half-maximal effective concentration (EC50) amounted to 0.3 nM. For the molecule `CCC1(CC)CC(=O)N(C(CCOC)c2ccc(C(F)(F)F)c(C(=O)N[C@@H]3c4ccccc4OC(C)(C)[C@H]3O)c2)C(=N)N1` (stereo partly drawn) [Example 246, 5-[1-(4,4-diethyl-2-imino-6-oxo-hexahydropyrimidin-1-yl)-3-methoxy-propyl]-N-[(3S,4R)-3-hydroxy-2,2-dimethyl-chroman-4-yl]-2-(trifluoromethyl)benzamide], the EC50 came to 1.74 nM. Take `CCC1(CC)CC(=O)N([C@H](CCOC)c2cc(F)cc(C(=O)N[C@@H]3c4ccccc4C[C@H]3O)c2)C(=N)N1` [Example 138, [4,4-diethyl-1-[1-[3-fluoro-5-[[(1R,2R)-2-hydroxyindan-1-yl]carbamoyl]phenyl]-3-methoxy-propyl]-6-oxo-hexahydropyrimidin-2-ylidene]ammonium; 2,2,2-trifluoroacetate]: the EC50 amounted to 2.7 nM. Same read-out and setting: as for `C=CC[C@H](c1cccc(C(=O)N[C@H]2CCOc3ccccc32)c1)N1C(=N)NC(CC)(CC)CC1=O` [Example 41, [1-[1-[3-[[(4S)-chroman-4-yl]carbamoyl]phenyl]but-3-enyl]-4,4-diethyl-6-oxo-hexahydropyrimidin-2-ylidene]ammonium; 2,2,2-trifluoroacetate], the figure is 0.9 nM; as for `CC[C@H](c1cccc(C(=O)N[C@@H]2c3ccccc3OC[C@@]2(C)O)c1)N1C(=N)NC(CC)(CC)CC1=O` [Example 206A, 3-[1-(4,4-diethyl-2-imino-6-oxo-hexahydropyrimidin-1-yl)propyl]-N-[(3S,4R)-3-hydroxy-3-methyl-chroman-4-yl]benzamide], 1 nM; as for `CC[C@@]1(C(C)C)CC(=O)N(Cc2cc(F)cc(C(=O)N[C@H]3CCOc4ccccc43)c2)C(=N)N1` [Example 60, [(4S)-1-[[3-[[(4S)-chroman-4-yl]carbamoyl]-5-fluoro-phenyl]methyl]-4-ethyl-4-isopropyl-6-oxo-hexahydropyrimidin-2-ylidene]ammonium; 2,2,2-trifluoroacetate], 5.8 nM.

Consider `CCC1(CC)CC(=O)N([C@H](CCOC)c2cc(F)cc(C(=O)N[C@@H]3c4ccccc4OC(C)(C)[C@H]3O)c2)C(=N)N1` (stereo in doubt) [Example 129A, [4,4-diethyl-1-[1-[3-fluoro-5-[(3-hydroxy-2,2-dimethyl-chroman-4-yl)carbamoyl]phenyl]-3-methoxy-propyl]-6-oxo-hexahydropyrimidin-2-ylidene]ammonium; 2,2,2-trifluoroacetate], for which the EC50 came to 0.8 nM. On to `CC(C)[C@]1(C)CC(=O)N([C@@H](c2cccc(C(=O)N[C@H]3CCOc4ccccc43)c2)C23CC(C2)C3)C(=N)N1` [Example 26, [(4S)-1-[1-bicyclo[1.1.1]pentanyl-[3-[[(4S)-chroman-4-yl]carbamoyl]phenyl]methyl]-4-isopropyl-4-methyl-6-oxo-hexahydropyrimidin-2-ylidene]ammonium; 2,2,2-trifluoroacetate], for which the EC50 worked out at 8.9 nM. Consider `CCC1(CC)CC(=O)N(Cc2cccc(C(=O)N[C@H]3CC(C)(C)Oc4c3ccc(F)c4F)c2)C(=N)N1` (stereo in doubt) [Example 117, [1-[[3-[(7,8-difluoro-2,2-dimethyl-chroman-4-yl)carbamoyl]phenyl]methyl]-4,4-diethyl-6-oxo-hexahydropyrimidin-2-ylidene]ammonium; 2,2,2-trifluoroacetate], for which the EC50 came to 1.5 nM. With `CCC1(CC)CC(=O)N(Cc2cccc(C(=O)N[C@@H]3c4ccccc4OCC3O)c2)C(=N)N1` (single isomer, unassigned) [Example 126A, 3-[(4,4-diethyl-2-imino-6-oxo-hexahydropyrimidin-1-yl)methyl]-N-(3-hydroxychroman-4-yl)benzamide], the EC50 was 19.4 nM.

As for `CC(C)[C@]1(C)CC(=O)N(Cc2cccc(C(=O)N[C@@H]3c4ccccc4C[C@H]3O)c2)C(=N)N1` [Example 10, [(4S)-1-[[3-[[(1R,2R)-2-hydroxyindan-1-yl]carbamoyl]phenyl]methyl]-4-isopropyl-4-methyl-6-oxo-hexahydropyrimidin-2-ylidene]ammonium; 2,2,2-trifluoroacetate], the EC50 came out at 7.9 nM. On the same count and under the same terms, to `CCC1(CC)CC(=O)N(Cc2cccc(C(=O)N[C@H]3CCc4ccccc43)c2)C(=N)N1` [Example 77, [4,4-diethyl-1-[[3-[[(1S)-indan-1-yl]carbamoyl]phenyl]methyl]-6-oxo-hexahydropyrimidin-2-ylidene]ammonium; 2,2,2-trifluoroacetate] belongs 14.7 nM; to `CC[C@]1(c2ccccc2)CC(=O)N(Cc2cc(F)cc(C(=O)N[C@@H]3c4ccccc4C[C@H]3O)c2)C(=N)N1` [Example 53, [(4R)-4-ethyl-1-[[3-fluoro-5-[[(1R,2R)-2-hydroxyindan-1-yl]carbamoyl]phenyl]methyl]-6-oxo-4-phenyl-hexahydropyrimidin-2-ylidene]ammonium; 2,2,2-trifluoroacetate], 25.3 nM.

Staying with this assay, now noted: parasite growth measured by LDH assay after 72 hours at 37° C.; 0.7% rings, 2% haematocrit; read-out: EC50.
Consider `CCC1(CC)CC(=O)N(C(CC(OC)C(F)(F)F)c2cccc(C(=O)N[C@@H]3c4ccccc4C[C@H]3O)c2)C(=N)N1` (single isomer, unassigned) [Example 238C], for which the EC50 is 2.32 nM.
